Data published in patent US20240325303A1, “KETOROLAC LIQUID COMPOSITION, PREPARATION METHOD THEREFOR, AND APPLICATION THEREOF” (SHANGHAI AURORA BIOTECHNOLOGY CO., LTD., priority 2021, published 2024).

Key:
[1] = system: human plasma protein; test: in vitro
Procedure: Samples at the dosing and receiving ends and at the preparation instant (0 h) were assayed by LC-MS/MS, and the plasma protein binding (PPB) rates and the recovery rates were calculated based on the assay results. The plasma samples and PBS samples prepared from the test samples and the commercially available controls were incubated at 37° C. for 6 h with oscillation (100 rpm) and then assayed for stability.

[2] = standard animal models for analgesic effect; cited from earlier work
[3] = compared with morphine; cited from earlier work
[4] = multiple tests; cited from earlier work

SMILES | recovery at 6 h, 300 ng/mL [1] | analgesic activity compared with indomethacin, naproxen, phenylbutazone [2] | analgesic activity relative to aspirin [2] | relieving postsurgical pain [3] | anti-inflammatory activity compared with indomethacin, naproxen, phenylbutazone [4]
CC(=O)CC(c1ccccc1)c1c(O)c2ccccc2oc1=O (centres unmarked) [Warfarin] | 96.2% |  |  |  | 
O=C(c1ccccc1)c1ccc2n1CCC2C(=O)O (centres unmarked) [Ketorolac tromethamine] |  | stronger than that of indomethacin and naproxen, and equivalent to or better than that of phenylbutazone | 800 times | superior to morphine | equivalent to or stronger than that of indomethacin, stronger than that of naproxen, and significantly better than that of phenylbutazone
